Assay results: patent publication US20220151236A1, “NOVEL OXADIAZOLE COMPOUNDS FOR CONTROLLING OR PREVENTING PHYTOPATHOGENIC FUNGI” (PI INDUSTRIES LTD., priority 2019, published 2022)

System: Phakopsora pachyrhizi
Experiment: Phakopsora pachyrhizi Test on Soybean (preventive activity, greenhouse)
Type: in vivo
Conditions: preventive spray on young Soybean plants, inoculated one day after treatment, rated 3, 7, 10 and 15 days after application, read-out: Efficacy (% control), disease severity compared to the untreated check
Protocol: Compounds were dissolved in 2% dimethyl sulfoxide/acetone and then mixed with water containing an emulsifier to a calibrated spray volume of 50 mL. This 50 mL spray solution was poured into spray bottles for further applications. To test the preventive activity of compounds, healthy young Soybean plants raised in the greenhouse were sprayed with the active compound preparation at the stated application rates inside the spray cabinets using hollow cone nozzles. One day after treatment, the plants were inoculated with a spore suspension containing 2×10^5 Phakopsora pachyrhizi conidia. The inoculated plants were then kept in a greenhouse chamber at 22-24° C. temperature and 80-90% relative humidity for disease expression. A visual assessment of the compound's performance was carried out by rating the disease severity (0-100% scale) on treated plants 3, 7, 10 and 15 days after application. Efficacy (% control) of the compounds was calculated by comparing the disease rating in the treatment with the one of the untreated control. The sprayed plants were also assessed for plant compatibility by recording symptoms like necrosis, chlorosis and stunting.

Row | SMILES | pest or weed control at 500 ppm
1 | FC(F)(F)c1nc(-c2ccn3cc(CSc4ccc(Cl)cc4)nc3c2)no1 [Compound 47, 3-(2-(((4-chlorophenyl)thio)methyl)imidazo[1,2-a]pyridin-7-yl)-5-(trifluoromethyl)-1,2,4-oxadiazole] | ≥ 70%
2 | Fc1ccc(SCc2cn3ccc(-c4noc(C(F)(F)F)n4)cc3n2)cc1 [Compound 48, 3-(2-(((4-fluorophenyl)thio)methyl)imidazo[1,2-a]pyridin-7-yl)-5-(trifluoromethyl)-1,2,4-oxadiazole] | ≥ 70%
3 | O=S(=O)(Cc1cn2ccc(-c3noc(C(F)(F)F)n3)cc2n1)c1ccc(F)cc1 [Compound 57, 3-(2-(((4-fluorophenyl)sulfonyl)methyl)imidazo[1,2-a]pyridin-7-yl)-5-(trifluoromethyl)-1,2,4-oxadiazole] | ≥ 70%
4 | O=S(=O)(Cc1cn2ccc(-c3noc(C(F)(F)F)n3)cc2n1)c1ccccc1 [Compound 58, 3-(2-((phenylsulfonyl)methyl)imidazo[1,2-a]pyridin-7-yl)-5-(trifluoromethyl)-1,2,4-oxadiazole] | ≥ 70%
5 | O=S(=O)(Cc1cn2ccc(-c3noc(C(F)(F)F)n3)cc2n1)c1ccccc1F [Compound 59, 3-(2-(((2-fluorophenyl)sulfonyl)methyl)imidazo[1,2-a]pyridin-7-yl)-5-(trifluoromethyl)-1,2,4-oxadiazole] | ≥ 70%
6 | O=C(NCc1ccc(C(F)(F)F)cc1)c1cn2cc(-c3noc(C(F)(F)F)n3)ccc2n1 [Compound 63, 6-(5-(trifluoromethyl)-1,2,4-oxadiazol-3-yl)-N-(4-(trifluoromethyl)benzyl)imidazo[1,2-a]pyridine-2-carboxamide] | ≥ 70%
7 | O=C(c1cn2cc(-c3noc(C(F)(F)F)n3)ccc2n1)N1CCOCC1 [Compound 64, morpholino(6-(5-(trifluoromethyl)-1,2,4-oxadiazol-3-yl)imidazo[1,2-a]pyridin-2-yl)methanone] | ≥ 70%
8 | CC(C)CNC(=O)c1cn2cc(-c3noc(C(F)(F)F)n3)ccc2n1 [Compound 66, N-isobutyl-6-(5-(trifluoromethyl)-1,2,4-oxadiazol-3-yl)imidazo[1,2-a]pyridine-2-carboxamide] | ≥ 70%
9 | O=C(NC1CCCC1)c1cn2cc(-c3noc(C(F)(F)F)n3)ccc2n1 [Compound 67, N-cyclopentyl-6-(5-(trifluoromethyl)-1,2,4-oxadiazol-3-yl)imidazo[1,2-a]pyridine-2-carboxamide] | ≥ 70%
10 | COC1CCN(C(=O)c2cn3cc(-c4noc(C(F)(F)F)n4)ccc3n2)C1 (stereo not shown) [Compound 68, (3-methoxypyrrolidin-1-yl)(6-(5-(trifluoromethyl)-1,2,4-oxadiazol-3-yl)imidazo[1,2-a]pyridin-2-yl)methanone] | ≥ 70%
11 | O=C(NCC1CC1)c1cn2cc(-c3noc(C(F)(F)F)n3)ccc2n1 [Compound 70, N-(cyclopropylmethyl)-6-(5-(trifluoromethyl)-1,2,4-oxadiazol-3-yl)imidazo[1,2-a]pyridine-2-carboxamide] | ≥ 70%
12 | CN(Cc1ccccc1)C(=O)c1cn2cc(-c3noc(C(F)(F)F)n3)ccc2n1 [Compound 71, N-benzyl-N-methyl-6-(5-(trifluoromethyl)-1,2,4-oxadiazol-3-yl)imidazo[1,2-a]pyridine-2-carboxamide] | ≥ 70%
13 | CC(NC(=O)c1cn2cc(-c3noc(C(F)(F)F)n3)ccc2n1)c1ccccc1 (stereo not shown) [Compound 72, N-(1-phenylethyl)-6-(5-(trifluoromethyl)-1,2,4-oxadiazol-3-yl)imidazo[1,2-a]pyridine-2-carboxamide] | ≥ 70%
14 | N#CC1(NC(=O)c2cn3cc(-c4noc(C(F)(F)F)n4)ccc3n2)CC1 [Compound 73, N-(1-cyanocyclopropyl)-6-(5-(trifluoromethyl)-1,2,4-oxadiazol-3-yl)imidazo[1,2-a]pyridine-2-carboxamide] | ≥ 70%
15 | O=C(NCc1cccc(Cl)c1)c1cn2cc(-c3noc(C(F)(F)F)n3)ccc2n1 [Compound 75, N-(3-chlorobenzyl)-6-(5-(trifluoromethyl)-1,2,4-oxadiazol-3-yl)imidazo[1,2-a]pyridine-2-carboxamide] | ≥ 70%
16 | COc1cccc(CNC(=O)c2cn3cc(-c4noc(C(F)(F)F)n4)ccc3n2)c1 [Compound 76, N-(3-methoxybenzyl)-6-(5-(trifluoromethyl)-1,2,4-oxadiazol-3-yl)imidazo[1,2-a]pyridine-2-carboxamide] | ≥ 70%
17 | O=C(NCc1ccc(Cl)cc1)c1cn2cc(-c3noc(C(F)(F)F)n3)ccc2n1 [Compound 77, N-(4-chlorobenzyl)-6-(5-(trifluoromethyl)-1,2,4-oxadiazol-3-yl)imidazo[1,2-a]pyridine-2-carboxamide] | ≥ 70%

Row | SMILES | pest or weed control at 500 ppm
18 | CC(C)CN(C)C(=O)c1cn2cc(-c3noc(C(F)(F)F)n3)ccc2n1 [Compound 78, N-isobutyl-N-methyl-6-(5-(trifluoromethyl)-1,2,4-oxadiazol-3-yl)imidazo[1,2-a]pyridine-2-carboxamide] | ≥ 70%
19 | CCOC(=O)c1cn2cc(-c3noc(C(F)(F)F)n3)ccc2n1 [Compound 79, ethyl 6-(5-(trifluoromethyl)-1,2,4-oxadiazol-3-yl)imidazo[1,2-a]pyridine-2-carboxylate] | ≥ 70%
20 | COc1ccc(C(=O)NCc2cn3cc(-c4noc(C(F)(F)F)n4)ccc3n2)cc1 [Compound 82, 4-methoxy-N-((6-(5-(trifluoromethyl)-1,2,4-oxadiazol-3-yl)imidazo[1,2-a]pyridin-2-yl)methyl)benzamide] | ≥ 70%
21 | O=C(NCc1cn2cc(-c3noc(C(F)(F)F)n3)ccc2n1)c1ccc(Cl)cc1 [Compound 83, 4-chloro-N-((6-(5-(trifluoromethyl)-1,2,4-oxadiazol-3-yl)imidazo[1,2-a]pyridin-2-yl)methyl)benzamide] | ≥ 70%
22 | CCC(=O)NCc1cn2cc(-c3noc(C(F)(F)F)n3)ccc2n1 [Compound 88, N-((6-(5-(trifluoromethyl)-1,2,4-oxadiazol-3-yl)imidazo[1,2-a]pyridin-2-yl)methyl)propionamide] | ≥ 70%
23 | O=C(NCc1cn2cc(-c3noc(C(F)(F)F)n3)ccc2n1)c1ccc(F)cc1 [Compound 90, 4-fluoro-N-((6-(5-(trifluoromethyl)-1,2,4-oxadiazol-3-yl)imidazo[1,2-a]pyridin-2-yl)methyl)benzamide] | ≥ 70%
24 | O=C(NCc1cn2cc(-c3noc(C(F)(F)F)n3)ccc2n1)c1cccc(F)c1 [Compound 93, 3-fluoro-N-((6-(5-(trifluoromethyl)-1,2,4-oxadiazol-3-yl)imidazo[1,2-a]pyridin-2-yl)methyl)benzamide] | ≥ 70%
25 | O=C(NCc1cn2cc(-c3noc(C(F)(F)F)n3)ccc2n1)c1ccncc1 [Compound 99, N-((6-(5-(trifluoromethyl)-1,2,4-oxadiazol-3-yl)imidazo[1,2-a]pyridin-2-yl)methyl)isonicotinamide] | ≥ 70%
26 | COc1ccc(SCc2cn3cc(-c4noc(C(F)(F)F)n4)ccc3n2)cc1 [Compound 100, 3-(2-(((4-methoxyphenyl)thio)methyl)imidazo[1,2-a]pyridin-6-yl)-5-(trifluoromethyl)-1,2,4-oxadiazole] | ≥ 70%
27 | FC(F)(F)c1nc(-c2ccc3nc(CSc4ccccc4)cn3c2)no1 [Compound 101, 3-(2-((phenylthio)methyl)imidazo[1,2-a]pyridin-6-yl)-5-(trifluoromethyl)-1,2,4-oxadiazole] | ≥ 70%
28 | Fc1cccc(SCc2cn3cc(-c4noc(C(F)(F)F)n4)ccc3n2)c1 [Compound 104, 3-(2-(((3-fluorophenyl)thio)methyl)imidazo[1,2-a]pyridin-6-yl)-5-(trifluoromethyl)-1,2,4-oxadiazole] | ≥ 70%
29 | Fc1ccc(SCc2cn3cc(-c4noc(C(F)(F)F)n4)ccc3n2)cc1 [Compound 105, 3-(2-(((4-fluorophenyl)thio)methyl)imidazo[1,2-a]pyridin-6-yl)-5-(trifluoromethyl)-1,2,4-oxadiazole] | ≥ 70%
30 | Fc1ccccc1SCc1cn2cc(-c3noc(C(F)(F)F)n3)ccc2n1 [Compound 106, 3-(2-(((2-fluorophenyl)thio)methyl)imidazo[1,2-a]pyridin-6-yl)-5-(trifluoromethyl)-1,2,4-oxadiazole] | ≥ 70%
31 | CCCSCc1cn2cc(-c3noc(C(F)(F)F)n3)ccc2n1 [Compound 107, 3-(2-((propylthio)methyl)imidazo[1,2-a]pyridin-6-yl)-5-(trifluoromethyl)-1,2,4-oxadiazole] | ≥ 70%
32 | COc1ccc(CSCc2cn3cc(-c4noc(C(F)(F)F)n4)ccc3n2)cc1 [Compound 109, 3-(2-(((4-methoxybenzyl)thio)methyl)imidazo[1,2-a]pyridin-6-yl)-5-(trifluoromethyl)-1,2,4-oxadiazole] | ≥ 70%
33 | FC(F)(F)c1nc(-c2ccc3nc(CSc4ccc(Cl)c(Cl)c4)cn3c2)no1 [Compound 110, 3-(2-(((3,4-dichlorophenyl)thio)methyl)imidazo[1,2-a]pyridin-6-yl)-5-(trifluoromethyl)-1,2,4-oxadiazole] | ≥ 70%
34 | O=S(=O)(Cc1cn2cc(-c3noc(C(F)(F)F)n3)ccc2n1)c1cccc(F)c1 [Compound 120, 3-(2-(((3-fluorophenyl)sulfonyl)methyl)imidazo[1,2-a]pyridin-6-yl)-5-(trifluoromethyl)-1,2,4-oxadiazole] | ≥ 70%
